# Results reported in patent US10022461B2, “Pyrrolo[2,3-C]pyridines as imaging agents for neurofibrilary tangles” (MERCK SHARP & DOHME CORP., priority 2014, dated 2018).
# Target: tau (Homo sapiens, UniProt P10636)
# Test: displacement tau binding assay in AD brain homogenates with [^3H]-6
# Details: Table 1, displacement of [^3H]-6 (0.25 nM)
# Description: The frozen human brain samples of Alzheimer's disease (AD) were purchased from Analytic Biological Services Inc. They were postmortem tissue from donors with clinical diagnosis of AD. As much of the white matter was dissected out of the frontal cortex in order to enrich the tissue preparations for gray matter. Brain homogenates of gray matter enriched frontal cortex were prepared by homogenizing the tissue in ice cold Phosphate Buffered Saline (PBS), pH 7.4 at 80 mg wet weight tissue per 1 mL for 45 seconds at 4° C. on setting 16 of Polytron. The homogenate was further diluted with ice cold PBS to 30 mg wet weight tissue per 1 mL and homogenized for an additional minute as described above. Homogenates were aliquoted in 5 ml/tube and store at −70° C. until use. […] Brain homogenates were diluted to 0.5 mg/mL from original 30 mg/mL volume in Assay Buffer, and 200 μl were added to the assay plate for a final concentration of 100 μg wet weight/assay tube. [^3H]-6 was prepared at […] final concentration in Assay Buffer plus 20% DMSO and 25 μl was added to the assay plate for final assay concentration of 0.25 nM. The assay plate was incubated at room temperature (25° C.) for 90 minutes. […] Filter plates were dried for 1 hour in a vacuum oven and 50 μl/well MicroScint-20 were added. Plates were counted 1 min per well by Packard Topcount. Total amount of radioligand used in the assay was determined by counting 25 μl of 10× ligand stock. […] Tau Ki data for representative compounds of the invention are found in Table 1.
# Chain of tau (P10636 2-758 limits assumed): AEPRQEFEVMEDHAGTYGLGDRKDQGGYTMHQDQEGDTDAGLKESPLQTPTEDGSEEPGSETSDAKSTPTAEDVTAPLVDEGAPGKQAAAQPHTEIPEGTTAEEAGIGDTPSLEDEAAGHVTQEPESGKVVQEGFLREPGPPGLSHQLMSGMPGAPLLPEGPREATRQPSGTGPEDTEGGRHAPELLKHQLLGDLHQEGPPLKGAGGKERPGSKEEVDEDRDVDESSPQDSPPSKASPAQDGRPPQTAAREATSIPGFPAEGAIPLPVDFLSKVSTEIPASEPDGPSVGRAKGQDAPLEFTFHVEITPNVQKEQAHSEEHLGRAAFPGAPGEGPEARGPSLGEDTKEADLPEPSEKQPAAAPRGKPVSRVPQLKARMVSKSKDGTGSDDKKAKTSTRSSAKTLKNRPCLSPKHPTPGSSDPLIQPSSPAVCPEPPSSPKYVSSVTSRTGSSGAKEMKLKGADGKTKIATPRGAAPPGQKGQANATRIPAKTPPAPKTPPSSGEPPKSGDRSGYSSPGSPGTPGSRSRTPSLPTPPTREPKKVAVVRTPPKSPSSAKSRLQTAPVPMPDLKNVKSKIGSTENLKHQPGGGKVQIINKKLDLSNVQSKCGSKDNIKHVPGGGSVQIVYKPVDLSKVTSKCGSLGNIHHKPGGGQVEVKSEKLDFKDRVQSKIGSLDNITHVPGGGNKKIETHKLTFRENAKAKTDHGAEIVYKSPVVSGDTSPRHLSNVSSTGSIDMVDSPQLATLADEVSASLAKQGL
row,SMILES,Ki [nM]
1,"FCOc1ccc2nc(-n3ccc4ccncc43)ncc2c1 [Compound 24, 6-(fluoromethoxy)-2-(1H-pyrrolo[2,3-c]pyridin-1-yl)quinazoline]",12.8
2,"FCCn1ccc(-c2cnc(-n3ccc4ccncc43)nc2)n1 [Compound 29, 1-(5-(1-(2-fluoroethyl)-1H-pyrazol-3-yl)pyrimidin-2-yl)-1H-pyrrolo[2,3-c]pyridine]",2.41
3,"CC#Cc1cnc(-n2ccc3ccncc32)cc1CO [Compound 21-4, (5-(prop-1-ynyl)-2-(1H-pyrrolo[2,3-c]pyridin-1-yl)pyridin-4-yl)methanol]",3.35
4,"c1cc2cnc(-n3ccc4ccncc43)cc2cn1 [Compound 26, 3-(1H-pyrrolo[2,3-c]pyridin-1-yl)-2,6-naphthyridine]",2.27
5,"CC#Cc1cnc(-n2ccc3ccncc32)cc1OC [Compound 33, 1-(4-methoxy-5-(prop-1-ynyl)pyridin-2-yl)-1H-pyrrolo[2,3-c]pyridine]",3.34
6,"COc1ccc(NC(=O)c2ccc(-n3ccc4ccncc43)nc2)cc1 [Compound 34, N-(4-methoxyphenyl)-6-(1H-pyrrolo[2,3-c]pyridin-1-yl)nicotinamide]",3.83
7,COc1cccc2cnc(-n3ccc4ccncc43)cc12 [Compound 70],44.4
8,"Fc1nccc2cnc(-n3ccc4ccncc43)cc12 [Compound 25, 1-fluoro-7-(1H-pyrrolo[2,3-c]pyridin-1-yl)-2,6-naphthyridine]",14.1
9,CN(CCO)c1ccc2cnc(-n3ccc4ccncc43)cc2c1 [Compound 66],4.07
10,"Fc1nc(-n2ccc3ccncc32)ccc1-c1cccnc1 [Compound 37, 1-(2-fluoro-3,3′-bipyridin-6-yl)-1H-pyrrolo[2,3-c]pyridine]",19.7
11,c1cnc(-c2ccc(-n3ccc4ccncc43)nc2)cn1 [Compound 64],3.17
12,"c1cc2ccn(-c3ccc(-c4nc[nH]n4)cn3)c2cn1 [Compound 41, 1-(5-(1H-1,2,4-triazol-3-yl)pyridin-2-yl)-1H-pyrrolo[2,3-c]pyridine]",8.8
13,"c1cc2ccn(-c3cc4c(cn3)CCCN4)c2cn1 [Compound 39, 7-(1H-pyrrolo[2,3-c]pyridin-1-yl)-1,2,3,4-tetrahydro-1,6-naphthyridine]",10.8
14,Fc1ccc2cnc(-n3ccc4ccncc43)nc2c1 [Compound 68],8.45
15,"Cc1cc(-n2ccc3ccncc32)ncc1OCCF [Compound 32, 1-(5-(2-fluoroethoxy)-4-methylpyridin-2-yl)-1H-pyrrolo[2,3-c]pyridine]",2.98
16,"FCCNc1ccc(-n2ccc3ccncc32)nc1 [Compound 36, N-(2-fluoroethyl)-6-(1H-pyrrolo[2,3-c]pyridin-1-yl)pyridin-3-amine]",4.96
17,CN(C)c1ccc2cnc(-n3ccc4ccncc43)cc2c1 [Compound 61],2.23
18,Fc1ccc2nc(-n3ccc4ccncc43)ncc2c1 [Compound 62],2.55
19,"OCCC1CCN(c2ccc(-n3ccc4ccncc43)nc2)CC1 [Compound 31-1, 2-(1-(6-(1H-pyrrolo[2,3-c]pyridin-1-yl)pyridin-3-yl)piperidin-4-yl)ethanol]",3.54
20,"FCCCNc1ccc(-n2ccc3ccncc32)nc1 [Compound 35, N-(3-fluoropropyl)-6-(1H-pyrrolo[2,3-c]pyridin-1-yl)pyridin-3-amine]",3.19
21,Cn1ccc(-c2ccc(-n3ccc4ccncc43)nc2)n1 [Compound 63],2.84
22,"FC1CCN(c2ccc(-n3ccc4ccncc43)nc2)CC1 [Compound 43, 1-(5-(4-fluoropiperidin-1-yl)pyridin-2-yl)-1H-pyrrolo[2,3-c]pyridine]",10
23,FCCOc1cccc2cnc(-n3ccc4ccncc43)cc12 [Compound 71],172

# Second part, the compound after the results:
row,Ki [nM],SMILES
1,2.19,"c1cc(-c2ccc(-n3ccc4ccncc43)nc2)ncn1 [Compound 46, 1-(5-(pyrimidin-4-yl)pyridin-2-yl)-1H-pyrrolo[2,3-c]pyridine]"
2,2.04,Fc1ccc(-c2ccc(-n3ccc4ccncc43)nc2)cn1 [Compound 60]
3,1.71,"FCCn1ccc(-c2ccc(-n3ccc4ccncc43)nc2)n1 [Compound 104, 1-(5-(1-(2-fluoroethyl)-1H-pyrazol-3-yl)pyridin-2-yl)-1H-pyrrolo[2,3-c]pyridine]"
4,1.65,"FCC#Cc1ccc(-n2ccc3ccncc32)nc1 [Compound 7, 1-(5-(3-fluoroprop-1-ynyl)pyridin-2-yl)-1H-pyrrolo[2,3-c]pyridine]"
5,1.55,"COc1ccc2nc(-n3ccc4ccncc43)ncc2c1 [Compound 24-4, 6-methoxy-2-(1H-pyrrolo[2,3-c]pyridin-1-yl)quinazoline]"
6,1.43,"CC#Cc1cnc(-n2ccc3ccncc32)cc1F [Compound 22, 1-(4-fluoro-5-(prop-1-ynyl)pyridin-2-yl)-1H-pyrrolo[2,3-c]pyridine]"
7,1.41,Fc1cccc(-c2ccc(-n3ccc4ccncc43)nc2)n1 [Compound 91]
8,1.4,CCNc1cc(-c2ccc(-n3ccc4ccncc43)nc2)ccn1 [Compound 94]
9,1.32,Cn1cc(-c2ccc(-n3ccc4ccncc43)nc2)cn1 [Compound 58]
10,1.16,Oc1cccc2cc(-n3ccc4ccncc43)ncc12 [Compound 56]
11,1.14,c1ccc(-c2ccc(-n3ccc4ccncc43)nc2)nc1 [Compound 101]
12,1.02,c1cc2ccn(-c3ccc(-c4cncs4)cn3)c2cn1 [Compound 53]
13,0.98,CC#Cc1ccc(-n2ccc3ccncc32)nc1 [Compound 52]
14,0.96,CN(C)c1ccc(-c2ccc(-n3ccc4ccncc43)nc2)cn1 [Compound 95]
15,0.87,Cc1cc(-n2ccc3ccncc32)ncc1C#CCF [Compound 51]
16,0.75,"Ic1ccc2cnc(-n3ccc4ccncc43)cc2c1 [Compound 20, 6-iodo-3-(1H-pyrrolo[2,3-c]pyridin-1-yl)isoquinoline]"
17,0.69,CNc1ccc(-c2ccc(-n3ccc4ccncc43)nc2)cn1 [Compound 88]
18,0.55,Nc1cc(-c2ccc(-n3ccc4ccncc43)nc2)ccn1 [Compound 99]
19,0.53,CNc1cc(-c2ccc(-n3ccc4ccncc43)nc2)ccn1 [Compound 93]
20,0.53,"Oc1ccc2cc(-n3ccc4ccncc43)ncc2c1 [Compound 15, 3-(1H-pyrrolo[2,3-c]pyridin-1-yl)isoquinolin-7-ol]"
21,0.48,Oc1ccc2cnc(-n3ccc4ccncc43)cc2c1 [Compound 75]
22,0.43,"FCOc1ccc2cc(-n3ccc4ccncc43)ncc2c1 [Compound 17, 7-(fluoromethoxy)-3-(1H-pyrrolo[2,3-c]pyridin-1-yl)isoquinoline]"
23,0.43,"Nc1c(F)ccc2cnc(-n3ccc4ccncc43)cc12 [Compound 18, 6-fluoro-3-(1H-pyrrolo[2,3-c]pyridin-1-yl)isoquinolin-5-amine]"
24,0.41,"FCCOc1ccc2cc(-n3ccc4ccncc43)ncc2c1 [Compound 16, 7-(2-fluoroethoxy)-3-(1H-pyrrolo[2,3-c]pyridin-1-yl)isoquinoline]"
25,0.4,"Nc1cccc2cnc(-n3ccc4ccncc43)cc12 [Compound 11-5, 3-(1H-pyrrolo[2,3-c]pyridin-1-yl)isoquinolin-5-amine]"
26,0.33,"CNc1ccc2cnc(-n3ccc4ccncc43)cc2c1 [Compound 14-1, N-methyl-3-(1H-pyrrolo[2,3-c]pyridin-1-yl)isoquinolin-6-amine]"
27,0.32,COc1cccc2cc(-n3ccc4ccncc43)ncc12 [Compound 103]
28,0.29,"COc1ccc2cc(-n3ccc4ccncc43)ncc2c1 [Compound 13, 7-methoxy-3-(1H-pyrrolo[2,3-c]pyridin-1-yl)isoquinoline]"

# Same assay, conditions: Table 2, displacement of [^3H]-6 (0.25 nM)
row,SMILES,Ki [nM]
1,Nc1cc(I)c2cc(-n3ccc4ccncc43)ncc2c1 [Compound 128],6.21
2,Nc1cc(I)c2cnc(-n3ccc4ccncc43)cc2c1 [Compound 125],18.6
3,Nc1c(F)ccc2cc(-n3ccc4ccncc43)ncc12 [Compound 110],2.15
4,Nc1cc(F)cc2cc(-n3ccc4ccncc43)ncc12 [Compound 112],0.672
5,Nc1ccc2cnc(-n3ccc4ccncc43)cc2c1F [Compound 111],1.09
6,Nc1cc(F)cc2cnc(-n3ccc4ccncc43)cc12 [Compound 115],0.224
7,Nc1ccc(F)c2cc(-n3ccc4ccncc43)ncc12 [Compound 117],2
8,Nc1cc(I)cc2cnc(-n3ccc4ccncc43)cc12 [Compound 127],1.17
9,Nc1cc2cc(-n3ccc4ccncc43)ncc2cc1F [Compound 109],0.423
10,Nc1cccc2cnc(-n3ccc4cc(F)ncc43)cc12 [Compound 106],10000
11,Nc1ccc(I)c2cc(-n3ccc4ccncc43)ncc12 [Compound 120],93.8
12,Nc1cccc2cnc(-n3ccc4ccnc(F)c43)cc12 [Compound 107],10000
13,Nc1cc2cc(-n3ccc4ccncc43)ncc2cc1I [Compound 126],0.18
14,Nc1c(I)ccc2cnc(-n3ccc4ccncc43)cc12 [Compound 119],0.438
15,Nc1ccc(I)c2cnc(-n3ccc4ccncc43)cc12 [Compound 123],208
16,Nc1c(I)ccc2cc(-n3ccc4ccncc43)ncc12 [Compound 121],0.512
